Where two headings read alike, the source gives them in different places.
Assays:
Assay type in all cases: biochemical
[1] = target: T1, JAK3 (Homo sapiens, UniProt P52333); experiment: JAK3 inhibition assay (standard radioactive enzyme assay); details: average Ki if more than one value determined
T1 sequence (P52333 1-1124): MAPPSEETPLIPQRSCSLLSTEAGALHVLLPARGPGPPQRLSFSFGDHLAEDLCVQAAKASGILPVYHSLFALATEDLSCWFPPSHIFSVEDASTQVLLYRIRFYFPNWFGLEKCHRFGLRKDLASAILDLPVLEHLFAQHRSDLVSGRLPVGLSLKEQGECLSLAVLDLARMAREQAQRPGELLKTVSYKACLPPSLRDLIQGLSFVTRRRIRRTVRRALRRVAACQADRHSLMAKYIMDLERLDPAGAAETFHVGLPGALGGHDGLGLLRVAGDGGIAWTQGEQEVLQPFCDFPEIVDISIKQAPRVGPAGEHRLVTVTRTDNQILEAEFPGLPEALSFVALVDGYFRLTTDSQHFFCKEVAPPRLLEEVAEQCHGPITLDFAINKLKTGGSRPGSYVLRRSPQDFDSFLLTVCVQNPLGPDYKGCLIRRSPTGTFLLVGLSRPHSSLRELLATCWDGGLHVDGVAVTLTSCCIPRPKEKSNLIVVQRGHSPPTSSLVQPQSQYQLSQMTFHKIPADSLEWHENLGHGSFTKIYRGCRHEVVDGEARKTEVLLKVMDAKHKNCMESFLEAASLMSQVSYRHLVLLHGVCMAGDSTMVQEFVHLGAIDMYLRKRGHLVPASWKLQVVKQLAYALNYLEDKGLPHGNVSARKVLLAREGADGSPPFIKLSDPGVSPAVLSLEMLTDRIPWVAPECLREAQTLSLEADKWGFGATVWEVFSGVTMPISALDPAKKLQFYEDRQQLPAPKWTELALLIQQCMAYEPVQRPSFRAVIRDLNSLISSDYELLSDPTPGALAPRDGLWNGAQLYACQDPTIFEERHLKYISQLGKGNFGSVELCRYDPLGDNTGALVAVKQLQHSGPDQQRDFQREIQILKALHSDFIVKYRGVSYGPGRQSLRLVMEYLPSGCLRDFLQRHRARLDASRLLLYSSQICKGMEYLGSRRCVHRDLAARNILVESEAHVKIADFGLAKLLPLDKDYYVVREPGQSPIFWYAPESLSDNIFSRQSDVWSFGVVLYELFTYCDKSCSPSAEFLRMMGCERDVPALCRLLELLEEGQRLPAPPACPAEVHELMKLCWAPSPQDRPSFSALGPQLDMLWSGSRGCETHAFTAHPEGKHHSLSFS

[2] = target: JAK2 (Homo sapiens, UniProt O60674); experiment: JAK2 inhibition assay (radioactive enzyme assay, as for JAK3); details: average Ki if more than one value determined
How it was run: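 Both kinases: poly(Glu)4Tyr substrate in 100 mM HEPES pH 7.4, 10 mM MgCl2, 1 mM DTT. Run 20 min at 25° C, TCA stop, filter-bound ³³P counted, Ki(app) fitted after background subtraction. JAK3: final [γ-³³P]ATP 5 μM, enzyme added as 2 nM solution. JAK2: final poly(Glu)4Tyr 15 μM, final ATP 12 μM.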

[3] = target: ROCK (Homo sapiens, UniProt Q13464); experiment: ROCK inhibition assay, standard radioactive enzyme assay ("33P")
Protocol: Some compounds were screened for their ability to inhibit ROCK using a standard radioactive enzyme assay. Assays were carried out in a solution containing 100 mM HEPES (pH 7.5), 10 mM MgCl2, 25 mM NaCl, 2 mM DTT, and 1.5% DMSO. Final substrate concentrations in the assay were 13 μM [γ-^33P] ATP (25 mCi ^33P ATP/mmol ATP, Perkin Elmer, Cambridge, Mass./Sigma Chemicals, St Louis, Mo.) and 27 μM Myelin Basic Protein (MBP). Final enzyme concentration in the assay was 5 nM ROCK. Assays were carried out at room temperature. 1.5 μl of DMSO stock containing serial dilutions of the compound of the present invention (concentrations ranging from 10 μM to 2.6 nM) was placed in a 96 well plate. 50 μl of Solution 1 (100 mM HEPES (pH 7.5), 10 mM MgCl2, […]) was added to the plate. The reaction was initiated by addition of 50 μl of Solution 2 (100 mM HEPES (pH 7.5), 10 mM MgCl2, 4 mM DTT, […] and 10 nM ROCK). After 2 hours the reaction was quenched with 50 μL of 30% trichloroacetic acid (TCA, Fisher) containing 9 mM ATP. Transfer of 140 μL of the quenched reaction to a glass fiber filter plate (Corning, Cat. No. 3511) was followed by washing 3 times with 5% TCA. 50 μL of Optima Gold scintillation fluid (Perkin Elmer) was added and the plates were counted on a Top Count (Perkin Elmer). After removing mean background values for all of the data points the data was fit using Prism software to obtain a Ki(app).

[4] = target: T2, full length Aurora-A (AA 1-403) (Homo sapiens, UniProt O14965); experiment: Aurora-A inhibition assay, standard coupled enzyme system; details: average Ki if more than one value determined
T2 construct: full length Aurora-A (AA 1-403)
T2 sequence (O14965 1-403): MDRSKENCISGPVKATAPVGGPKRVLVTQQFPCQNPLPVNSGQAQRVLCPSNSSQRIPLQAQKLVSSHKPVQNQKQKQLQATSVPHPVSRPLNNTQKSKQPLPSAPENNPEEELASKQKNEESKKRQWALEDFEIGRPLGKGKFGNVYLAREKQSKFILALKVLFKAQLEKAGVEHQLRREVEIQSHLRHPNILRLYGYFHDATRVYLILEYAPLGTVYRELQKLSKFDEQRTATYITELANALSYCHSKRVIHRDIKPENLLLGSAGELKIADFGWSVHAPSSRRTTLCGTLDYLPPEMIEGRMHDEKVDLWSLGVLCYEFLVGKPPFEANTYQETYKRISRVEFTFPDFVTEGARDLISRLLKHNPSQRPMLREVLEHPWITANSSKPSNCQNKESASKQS

[5] = target: T3, ROCK I (AA 6-553) (Homo sapiens, UniProt Q13464); experiment: ROCK inhibition assay, standard coupled enzyme system ("Enzyme"); details: enzyme-linked assay
T3 construct: ROCK I (AA 6-553)
How it was run: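 ROCK I (AA 6-553) at 45 nM and 30 °C with 45 μM ATP and 200 μM peptide, in 100 mM HEPES pH 7.5, 10 mM MgCl2, 25 mM NaCl, 2 mM DTT, 1.5% DMSO. ADP output read by a PK/LDH coupled system: 2.5 mM PEP, 350 μM NADH, 30 μg/ml PK, 10 μg/ml LDH.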

T3 sequence (Q13464 6-553, species assumed): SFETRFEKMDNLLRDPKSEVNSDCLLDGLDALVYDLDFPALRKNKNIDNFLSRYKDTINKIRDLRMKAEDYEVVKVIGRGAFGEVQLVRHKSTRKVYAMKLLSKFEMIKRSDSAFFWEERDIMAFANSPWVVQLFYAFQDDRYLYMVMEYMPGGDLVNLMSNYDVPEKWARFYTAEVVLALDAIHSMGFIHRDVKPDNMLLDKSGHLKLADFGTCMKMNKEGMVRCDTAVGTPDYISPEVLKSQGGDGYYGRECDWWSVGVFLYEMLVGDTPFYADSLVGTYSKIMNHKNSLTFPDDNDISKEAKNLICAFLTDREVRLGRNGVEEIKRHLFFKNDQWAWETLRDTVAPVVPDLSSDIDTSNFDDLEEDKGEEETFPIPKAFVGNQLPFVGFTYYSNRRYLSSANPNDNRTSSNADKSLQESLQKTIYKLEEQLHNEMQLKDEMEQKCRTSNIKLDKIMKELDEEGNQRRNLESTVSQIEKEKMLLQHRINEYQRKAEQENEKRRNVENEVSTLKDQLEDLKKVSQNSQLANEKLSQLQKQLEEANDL
Sequence of ROCK (Q13464 whole entry): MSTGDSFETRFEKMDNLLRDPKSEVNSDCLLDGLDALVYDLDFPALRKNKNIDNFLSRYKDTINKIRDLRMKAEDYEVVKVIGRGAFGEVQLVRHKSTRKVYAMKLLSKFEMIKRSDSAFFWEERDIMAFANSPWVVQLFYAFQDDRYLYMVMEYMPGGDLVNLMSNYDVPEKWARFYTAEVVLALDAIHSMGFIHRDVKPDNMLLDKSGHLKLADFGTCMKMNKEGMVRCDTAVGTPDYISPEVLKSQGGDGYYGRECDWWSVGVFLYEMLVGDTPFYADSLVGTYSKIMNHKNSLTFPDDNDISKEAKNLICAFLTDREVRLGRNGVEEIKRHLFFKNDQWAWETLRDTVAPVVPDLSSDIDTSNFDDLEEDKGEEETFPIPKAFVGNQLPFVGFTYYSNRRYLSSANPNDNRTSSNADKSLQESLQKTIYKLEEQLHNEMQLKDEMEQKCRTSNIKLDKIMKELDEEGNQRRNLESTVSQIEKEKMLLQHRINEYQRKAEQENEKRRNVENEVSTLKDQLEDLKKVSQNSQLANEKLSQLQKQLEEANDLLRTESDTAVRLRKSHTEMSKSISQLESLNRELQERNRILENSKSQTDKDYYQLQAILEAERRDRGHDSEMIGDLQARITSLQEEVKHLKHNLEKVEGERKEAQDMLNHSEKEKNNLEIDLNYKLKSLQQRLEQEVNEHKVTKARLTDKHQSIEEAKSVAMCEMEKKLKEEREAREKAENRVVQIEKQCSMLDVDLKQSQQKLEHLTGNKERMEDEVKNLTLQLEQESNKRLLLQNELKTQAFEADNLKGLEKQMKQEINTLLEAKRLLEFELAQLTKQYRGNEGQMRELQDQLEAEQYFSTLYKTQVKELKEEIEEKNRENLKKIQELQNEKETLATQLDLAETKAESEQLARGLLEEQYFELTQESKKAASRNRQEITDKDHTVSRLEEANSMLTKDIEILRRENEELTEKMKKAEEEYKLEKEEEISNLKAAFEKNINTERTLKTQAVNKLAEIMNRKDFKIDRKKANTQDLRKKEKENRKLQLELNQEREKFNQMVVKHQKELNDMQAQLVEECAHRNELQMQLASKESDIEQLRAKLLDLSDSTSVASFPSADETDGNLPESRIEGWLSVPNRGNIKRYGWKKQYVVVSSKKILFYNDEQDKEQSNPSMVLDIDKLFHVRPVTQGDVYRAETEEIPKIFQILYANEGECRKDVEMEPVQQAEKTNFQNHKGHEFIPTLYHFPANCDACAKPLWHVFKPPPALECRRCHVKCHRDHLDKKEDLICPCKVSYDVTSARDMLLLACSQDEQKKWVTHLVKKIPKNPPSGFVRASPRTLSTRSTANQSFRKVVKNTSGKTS
Sequence of JAK2 (O60674 whole entry, species assumed): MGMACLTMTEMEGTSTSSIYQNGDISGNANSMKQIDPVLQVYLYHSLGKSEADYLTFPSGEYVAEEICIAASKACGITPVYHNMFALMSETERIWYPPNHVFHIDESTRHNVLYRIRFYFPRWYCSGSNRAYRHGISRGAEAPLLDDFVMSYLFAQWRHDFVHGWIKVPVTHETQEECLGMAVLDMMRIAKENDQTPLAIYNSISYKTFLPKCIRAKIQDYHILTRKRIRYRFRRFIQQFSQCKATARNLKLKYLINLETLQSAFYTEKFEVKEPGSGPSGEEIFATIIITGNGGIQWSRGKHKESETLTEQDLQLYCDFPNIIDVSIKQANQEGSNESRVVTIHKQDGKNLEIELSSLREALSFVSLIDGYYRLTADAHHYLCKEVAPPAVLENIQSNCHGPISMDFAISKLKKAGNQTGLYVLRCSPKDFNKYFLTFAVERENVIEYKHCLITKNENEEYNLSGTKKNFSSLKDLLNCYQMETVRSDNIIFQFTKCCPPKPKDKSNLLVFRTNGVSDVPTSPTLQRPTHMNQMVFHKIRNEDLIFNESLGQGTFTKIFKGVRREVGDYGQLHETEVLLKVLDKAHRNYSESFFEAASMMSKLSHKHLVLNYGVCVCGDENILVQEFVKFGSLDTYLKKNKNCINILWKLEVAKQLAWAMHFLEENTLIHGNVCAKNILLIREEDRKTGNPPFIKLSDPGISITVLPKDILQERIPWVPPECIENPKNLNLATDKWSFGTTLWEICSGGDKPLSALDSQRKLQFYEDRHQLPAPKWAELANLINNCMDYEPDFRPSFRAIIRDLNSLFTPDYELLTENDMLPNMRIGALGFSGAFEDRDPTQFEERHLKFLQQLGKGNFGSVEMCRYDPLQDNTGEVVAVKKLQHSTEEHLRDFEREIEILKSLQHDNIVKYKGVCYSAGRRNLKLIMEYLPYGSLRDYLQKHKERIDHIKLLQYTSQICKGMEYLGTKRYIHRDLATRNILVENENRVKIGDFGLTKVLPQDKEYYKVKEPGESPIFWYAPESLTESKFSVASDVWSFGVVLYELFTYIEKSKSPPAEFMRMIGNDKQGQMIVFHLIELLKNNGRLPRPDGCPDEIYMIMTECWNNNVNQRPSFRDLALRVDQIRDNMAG

Row | Structure (SMILES) | Ki [1] | Ki [2] | Ki [3] | Ki ([1]; Ki(app)) | Ki ([2]; Ki(app)) | Ki ([3]; Ki(app)) | Ki [4] | Ki [5]
1 | Clc1cccc(CNc2cc(-c3c[nH]c4ncccc34)ncn2)c1 [Compound 21] | < 500 nM | < 500 nM | < 500 nM |  |  |  |  | 
2 | CN(Cc1ccccc1)c1cc(-c2c[nH]c3ncccc23)ncn1 [Compound 26] | < 500 nM | < 500 nM | < 500 nM |  |  |  |  | 
3 | c1cncc(CNc2nccc(-c3c[nH]c4ncccc34)n2)c1 [Compound 6] | < 500 nM | < 500 nM | < 500 nM |  |  |  |  | 
4 | Clc1cnc2[nH]cc(-c3ccnc(N4CCCCCC4)n3)c2c1 [Compound 9] | < 500 nM | < 500 nM | 500 to 5000 nM | 500 to 5000 nM | 500 to 5000 nM | 500 to 5000 nM | 500 to 5000 nM | 
5 | c1ccc(CNc2ccnc(-c3c[nH]c4ncccc34)n2)cc1 [Compound 11, Benzyl-[2-(1H-pyrrolo[2,3-b]pyridin-3-yl)-pyrimidin-4-yl]amine] |  |  |  | < 500 nM | < 500 nM | < 500 nM |  | 
6 | CCCOC(=O)N1CCCN(c2nccc(-c3c[nH]c4ncc(OC)cc34)n2)CC1 [Compound 34] | < 500 nM | < 500 nM | 500 to 5000 nM |  |  |  |  | < 500 nM
7 | CC(=O)N1[C@H](C)CN(c2cccc(-c3c[nH]c4ncc(NC(=O)OC(C)(C)C)cc34)n2)C[C@@H]1C [Compound 37] | < 500 nM | < 500 nM | < 500 nM |  |  |  |  | 500 to 5000 nM
8 | COc1cnc2[nH]cc(-c3cc(N[C@@H](C)c4ccccc4)ncn3)c2c1 [Compound 14] | < 500 nM | < 500 nM | < 500 nM |  |  |  | 500 to 5000 nM | 
9 | Clc1cnc2[nH]cc(-c3cccc(NCc4ccccc4)n3)c2c1 [Compound 20] | < 500 nM | < 500 nM | 500 to 5000 nM |  |  |  | < 500 nM | 
10 | CS(=O)(=O)c1cccc(-c2c[nH]c3ncc(-c4ccccc4)cc23)c1 [Compound 218] |  |  | < 500 nM |  |  |  | < 500 nM | < 500 nM
11 | Nc1cccc(CNc2cc(-c3c[nH]c4ncccc34)ncn2)c1 [Compound 28] | < 500 nM | < 500 nM | < 500 nM |  |  |  |  | 
12 | CC(=O)N1CCCN(c2nccc(-c3c[nH]c4ncc(C(N)=O)cc34)n2)CC1 [Compound 1] | < 500 nM | < 500 nM | 500 to 5000 nM |  |  |  |  | 
13 | COc1cnc2[nH]cc(-c3ccnc(N4CCCN(S(C)(=O)=O)CC4)n3)c2c1 [Compound 30] | < 500 nM | < 500 nM | < 500 nM |  |  |  | < 500 nM | 
14 | Fc1cc(F)cc(CNc2cc(-c3c[nH]c4ncccc34)ncn2)c1 [Compound 29] | < 500 nM | < 500 nM | < 500 nM |  |  |  |  | 
15 | c1ccc(CNc2nccc(-c3c[nH]c4ncc(-c5cccnc5)cc34)n2)cc1 [Compound 2] | < 500 nM | < 500 nM | 500 to 5000 nM |  |  |  |  | 
16 | CC(=O)N1[C@H](C)CN(c2nc(-c3c[nH]c4ncc(Cl)cc34)ccc2C(N)=O)C[C@@H]1C [Compound 32] | < 500 nM | < 500 nM | 500 to 5000 nM |  |  |  | < 500 nM | 

Row | Structure (SMILES) | Ki [1] | Ki [2] | Ki [3] | Ki ([1]; Ki(app)) | Ki ([2]; Ki(app)) | Ki ([3]; Ki(app)) | Ki [4] | Ki [5]
17 | COc1cnc2[nH]cc(-c3ccnc(N4C[C@@H](C)N(C(C)=O)[C@@H](C)C4)n3)c2c1 [Compound 25] | < 500 nM | < 500 nM | < 500 nM |  |  |  | < 500 nM | 
18 | C[C@@H]1CCN(Cc2ccccc2)CC1N(C)c1cc(-c2c[nH]c3ncccc23)ncn1 (stereo partly shown) [Compound 15] | 500 to 5000 nM | 500 to 5000 nM | 500 to 5000 nM |  |  |  |  | 
19 | COc1cnc2[nH]cc(-c3cc(NCc4ccccc4)ncn3)c2c1 [Compound 12] | < 500 nM | < 500 nM | < 500 nM |  |  |  |  | 
20 | COc1cnc2[nH]cc(-c3cc(N[C@H](C)c4ccccc4)ncn3)c2c1 [Compound 13] | < 500 nM | < 500 nM | 500 to 5000 nM |  |  |  |  | 
21 | FC(F)(F)c1cccc(CNc2cc(-c3c[nH]c4ncccc34)ncn2)c1 [Compound 22] | < 500 nM | < 500 nM | < 500 nM |  |  |  |  | 
22 | CC(C)C[C@@H](CO)Nc1nccc(-c2c[nH]c3ncc(Cl)cc23)n1 [Compound 10] | < 500 nM | < 500 nM | < 500 nM |  |  |  | < 500 nM | 
23 | Brc1cnc2[nH]c(-c3ccccc3)c(-c3ccc(N4CCOCC4)cc3)c2c1 [Compound 217] |  |  | 500 to 5000 nM |  |  |  | < 500 nM | 500 to 5000 nM
24 | CC(=O)N1CCCN(c2nccc(-c3c[nH]c4ncc(Cl)cc34)n2)CC1 [Compound 5] | < 500 nM | < 500 nM | 500 to 5000 nM |  |  |  |  | 
25 | CC(=O)N1CCCN(c2nccc(-c3c[nH]c4ncc(-c5cccnc5)cc34)n2)CC1 [Compound 3] | < 500 nM | < 500 nM | < 500 nM |  |  |  |  | 
26 | C[C@@H]1CCNCC1N(C)c1cc(-c2c[nH]c3ncccc23)ncn1 (stereo partly shown) [Compound 17] | 500 to 5000 nM | 500 to 5000 nM | < 500 nM |  |  |  |  | 
27 | CCS(=O)(=O)N1CCCN(c2nccc(-c3c[nH]c4ncc(OC)cc34)n2)CC1 [Compound 31] | < 500 nM | < 500 nM | < 500 nM |  |  |  |  | 
28 | Fc1cccc(CNc2cc(-c3c[nH]c4ncccc34)ncn2)c1 [Compound 16] | < 500 nM | < 500 nM | < 500 nM |  |  |  |  | 
29 | Fc1ccc(CNc2cc(-c3c[nH]c4ncccc34)ncn2)cc1 [Compound 27] | < 500 nM | < 500 nM | < 500 nM |  |  |  |  | 
30 | c1ccc(-c2cccc(CNc3cc(-c4c[nH]c5ncccc45)ncn3)c2)cc1 [Compound 23] | 500 to 5000 nM | 500 to 5000 nM | < 500 nM |  |  |  |  | 
31 | COc1cnc2[nH]cc(-c3ccnc(N4CCCN(C(C)=O)CC4)n3)c2c1 [Compound 24] | < 500 nM | < 500 nM | < 500 nM |  |  |  | 500 to 5000 nM | 
32 | CN(C)C(=O)c1ccc(-c2c[nH]c3ncc(-c4ccccc4)cc23)cc1 [Compound 219] |  |  | 500 to 5000 nM |  |  |  | < 500 nM | 500 to 5000 nM

— patent publication US8501446B2 (Vertex Pharmaceuticals Incorporated, priority 2004, dated 2013)
